Experimental data published in PMC10911062, “Identification and structural validation of purine nucleoside phosphorylase from Plasmodium falciparum as a target of MMV000848” (The Journal of Biological Chemistry, 2023).
Read-outs that look alike come from different tables or passages of the source.

Key:
[1] = biological target: T1, Purine nucleoside phosphorylase (PfPNP) (Plasmodium falciparum, UniProt Q8I3X4); assay: Michaelis-Menten kinetics of the purified enzyme; assay type: biochemical
T1 construct: gene PNP
T1 sequence (Q8I3X4 1-245): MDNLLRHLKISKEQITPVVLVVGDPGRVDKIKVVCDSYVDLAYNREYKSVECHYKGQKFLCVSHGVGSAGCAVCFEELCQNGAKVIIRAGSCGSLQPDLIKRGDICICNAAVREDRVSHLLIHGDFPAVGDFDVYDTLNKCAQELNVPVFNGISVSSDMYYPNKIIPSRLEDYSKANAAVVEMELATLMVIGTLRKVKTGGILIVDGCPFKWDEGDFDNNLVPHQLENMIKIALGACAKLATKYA

Falcilysin = biological target: T2, Falcilysin (Plasmodium falciparum, UniProt Q76NL8); assay: MS-CETSA (ITDR), intact infected erythrocytes and parasite lysate; minimal dose threshold; assay type: cell-based
T2 construct: gene FLN

[2] = biological target: T1, Purine nucleoside phosphorylase (PfPNP); assay: ITC; cocrystal structure at […] Å; also DSF, CETSA and enzyme inhibition (IC50 […], Ki […]); assay type: binding
[3] = biological target: T1, Purine nucleoside phosphorylase (PfPNP); assay: xanthine oxidase-coupled inosine phosphorolysis assay; assay type: biochemical
[4] = biological target: the molecule itself; assay: crystal structure; co-crystal of PfPNP (37 mg/ml) with 3 mM MMV000848, sitting-drop vapor diffusion at 20 °C, 10% (w/v) PEG 1000; 1.85 Å, space group R32; hexamer formed through crystallographic symmetry

T2 sequence (Q76NL8 whole entry): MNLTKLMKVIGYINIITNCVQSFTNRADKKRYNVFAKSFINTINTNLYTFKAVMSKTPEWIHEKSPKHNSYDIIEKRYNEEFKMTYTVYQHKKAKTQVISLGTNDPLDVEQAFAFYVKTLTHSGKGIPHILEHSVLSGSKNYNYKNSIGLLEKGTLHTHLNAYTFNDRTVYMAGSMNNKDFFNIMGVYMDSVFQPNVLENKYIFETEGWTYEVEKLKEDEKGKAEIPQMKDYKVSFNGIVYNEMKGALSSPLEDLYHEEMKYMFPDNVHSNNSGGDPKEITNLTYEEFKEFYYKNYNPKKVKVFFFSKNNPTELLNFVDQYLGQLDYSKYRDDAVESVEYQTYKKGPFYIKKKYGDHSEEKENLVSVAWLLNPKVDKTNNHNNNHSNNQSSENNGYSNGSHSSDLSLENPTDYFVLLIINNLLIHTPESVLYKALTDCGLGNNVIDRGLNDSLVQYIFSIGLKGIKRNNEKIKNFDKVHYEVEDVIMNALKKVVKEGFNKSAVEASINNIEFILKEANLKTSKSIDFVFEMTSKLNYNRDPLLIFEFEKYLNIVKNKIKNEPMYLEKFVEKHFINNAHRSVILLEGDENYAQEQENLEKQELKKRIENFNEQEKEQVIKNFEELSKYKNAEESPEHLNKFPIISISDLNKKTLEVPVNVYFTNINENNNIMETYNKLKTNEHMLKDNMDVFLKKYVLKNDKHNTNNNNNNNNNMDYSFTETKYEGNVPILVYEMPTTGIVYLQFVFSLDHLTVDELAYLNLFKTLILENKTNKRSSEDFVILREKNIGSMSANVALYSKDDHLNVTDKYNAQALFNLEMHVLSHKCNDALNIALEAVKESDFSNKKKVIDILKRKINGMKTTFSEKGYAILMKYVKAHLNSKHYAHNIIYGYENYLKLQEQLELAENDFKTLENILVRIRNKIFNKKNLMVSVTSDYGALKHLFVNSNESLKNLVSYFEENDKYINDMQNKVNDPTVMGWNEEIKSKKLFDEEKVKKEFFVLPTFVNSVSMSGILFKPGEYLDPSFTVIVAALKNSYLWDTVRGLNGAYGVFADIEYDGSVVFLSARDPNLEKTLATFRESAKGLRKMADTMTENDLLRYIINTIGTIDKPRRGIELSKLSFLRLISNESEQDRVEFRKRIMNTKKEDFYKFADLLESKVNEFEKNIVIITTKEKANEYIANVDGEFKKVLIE

O=c1[nH]cnc2c1ncn2[C@@H]1O[C@H](CO)[C@@H](O)[C@H]1O [inosine]
Michaelis-Menten kinetics of the purified enzyme [1]: Measurements of KM,app (apparent KM) of inosine was made in the presence of various concentrations of MMV000848

OC(CNC1CCCC1)Cn1c2ccccc2c2ccccc21 (stereo not drawn) [MMV000848, 1-carbazol-9-yl-3-cyclopentylamino-propan-2-ol]
MDT (Falcilysin): 749.91 nM | Kd [2]: 1.52 µM

OC(c1cc(C(F)(F)F)nc2c(C(F)(F)F)cccc12)C1CCCCN1 (racemic) [mefloquine]
IC50 [3]: 327 µM

C=C[C@H]1C[N@@]2CC[C@H]1C[C@H]2[C@H](O)c1ccnc2ccc(OC)cc12 [quinine]
IC50 ([3]; read-out: IC50): 11.3 µM

B1: Plasmodium falciparum purine nucleoside phosphorylase (enzyme)
chain: T1 sequence (Q8I3X4 1-245)
notes: Purine nucleoside phosphorylase of Plasmodium falciparum, PlasmoDB PF3D7_0513300; gene subcloned into pNIC-CH; Homo-hexamer (three 2-fold symmetrical dimers around a crystallographic three-fold axis); one protein chain in the asymmetric unit; also called PfPNP; PNP; source: Rosetta BL21-DE3 Escherichia coli, purified (IMAC on HisTrapHP, SEC on Superdex 200)
stoichiometry N [4]: 6
